# Test results as given in patent US11608337B2, “Heterocyclic compounds as immunomodulators” (Incyte Corporation, priority 2016, dated 2023).
# Target: PD-1/PD-L1 protein/protein interaction (Homo sapiens (Human), UniProt Q9NZQ7)
# Experiment: PD-1/PD-L1 Homogeneous Time-Resolved Fluorescence (HTRF) Binding Assay
# Settings: recombinant human PD-L1 (19-238) His-tag, human PD-1 (25-167) Fc tag; 25° C., PBS pH 7.4
# Method: Example A. PD-1/PD-L1 Homogeneous Time-Resolved Fluorescence (HTRF) Binding Assay
# The assays were conducted in a standard black 384-well polystyrene plate with a final volume of 20 μL. Inhibitors were first serially diluted in DMSO and then added to the plate wells before the addition of other reaction components. The final concentration of DMSO in the assay was 1%. The assays were carried out at 25° C. in the PBS buffer (pH 7.4) with 0.05% Tween-20 and 0.1% BSA. Recombinant human PD-L1 protein (19-238) with a His-tag at the C-terminus was purchased from AcroBiosystems (PD1-H5229). Recombinant human PD-1 protein (25-167) with Fc tag at the C-terminus was also purchased from AcroBiosystems (PD1-H5257). PD-L1 and PD-1 proteins were diluted in the assay buffer and 10 μL was added to the plate well. Plates were centrifuged and proteins were preincubated with inhibitors for 40 minutes. The incubation was followed by the addition of 10 μL of HTRF detection buffer supplemented with Europium cryptate-labeled anti-human IgG (PerkinElmer-AD0212) specific for Fc and anti-His antibody conjugated to SureLight®-Allophycocyanin (APC, PerkinElmer-AD0059H). After centrifugation, the plate was incubated at 25° C. for 60 min. before reading on a PHERAstar FS plate reader (665 nm/620 nm ratio). Final concentrations in the assay were […], 10 nM PD-L1, 1 nM europium anti-human IgG and 20 nM anti-His-Allophycocyanin. IC50 determination was performed by fitting the curve of percent control activity versus the log of the inhibitor concentration using the GraphPad Prism 5.0 software.
# Data obtained for the Example compounds using the PD-1/PD-L homogenous time-resolved fluorescence (HTRF) binding assay described in Example A is provided in Table 1.
# Sequence of PD-1/PD-L1 protein/protein interaction (Q9NZQ7 19-238): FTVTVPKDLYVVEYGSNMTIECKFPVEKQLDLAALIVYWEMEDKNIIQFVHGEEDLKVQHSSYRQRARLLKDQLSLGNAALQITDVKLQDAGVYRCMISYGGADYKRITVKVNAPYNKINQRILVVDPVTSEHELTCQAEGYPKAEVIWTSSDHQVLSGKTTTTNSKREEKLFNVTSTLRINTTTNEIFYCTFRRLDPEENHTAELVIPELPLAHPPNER
row,IC50 [nM],SMILES
1,≤ 100,"Cc1c(C2=CCCCC2)cccc1-c1nc2c(s1)CNCC2 [Example 32, 2-(3-cyclohex-1-en-1-yl-2-methylphenyl)-4,5,6,7-tetrahydro[1,3]thiazolo[5,4-c]pyridine]"
2,≤ 100,"CCOc1cccc(-c2cccc(-c3nc4c(s3)CNCC4)c2C)c1 [Example 33, 2-(3′-ethoxy-2-methylbiphenyl-3-yl)-4,5,6,7-tetrahydro[1,3]thiazolo[5,4-c]pyridine]"
3,≤ 100,"COc1cc(OC)cc(-c2cccc(-c3nc4c(s3)CNCC4)c2C)c1 [Example 34, 2-(3′,5′-dimethoxy-2-methylbiphenyl-3-yl)-4,5,6,7-tetrahydro[1,3]thiazolo[5,4-c]pyridine]"
4,100 to 500,"N#Cc1c(-c2ccc3c(c2)OCCO3)ccnc1-c1nc2c(s1)CNCC2 [Example 35, 4-(2,3-dihydro-1,4-benzodioxin-6-yl)-2-(4,5,6,7-tetrahydro[1,3]thiazolo[5,4-c]pyridin-2-yl)nicotinonitrile]"
5,100 to 500,"Cc1c(-c2cccc(OCCO)c2)cccc1-c1nc2c(s1)CNCC2 [Example 36, 2-{[2′-methyl-3′-(4,5,6,7-tetrahydro[1,3]thiazolo[5,4-c]pyridin-2-yl)biphenyl-3-yl]oxy}ethanol]"
6,≤ 100,"COc1cc(OC)c(F)c(-c2cccc(-c3nc4c(s3)CNCC4)c2C)c1F [Example 37, 2-(2′,6′-difluoro-3′,5′-dimethoxy-2-methylbiphenyl-3-yl)-4,5,6,7-tetrahydro[1,3]thiazolo[5,4-c]pyridine]"
7,≤ 100,"Cc1c(-c2cccc(C(N)=O)c2)cccc1-c1nc2c(s1)CNCC2 [Example 38, 2′-methyl-3′-(4,5,6,7-tetrahydro[1,3]thiazolo[5,4-c]pyridin-2-yl)biphenyl-3-carboxamide]"
8,≤ 100,"Cc1c(-c2cccc(CC(N)=O)c2)cccc1-c1nc2c(s1)CNCC2 [Example 39, 2-[2′-methyl-3′-(4,5,6,7-tetrahydro[1,3]thiazolo[5,4-c]pyridin-2-yl)biphenyl-3-yl]acetamide]"
9,≤ 100,"Cc1c(-c2nc3c(s2)CNCC3)cccc1-c1cccc2c1cnn2C [Example 40, 2-[2-methyl-3-(1-methyl-1H-indazol-4-yl)phenyl]-4,5,6,7-tetrahydro[1,3]thiazolo[5,4-c]pyridine]"
